Source: patent US20260265178A1, “TERTIARY AMINE DERIVATIVES AND THEIR USES FOR TREATING A VIRAL INFECTION” (ENYO PHARMA, priority 2022, published 2026)
Read-outs that look alike come from different tables or passages of the source.

Legend:
[1] = test system: Respiratory Syncytial Virus (RSV); assay: Cytopathic effect (CPE) assay, HEp-2 cells infected by RSV, CellTiter-Glo viability readout; type: cell-based; conditions: for IC50: HEp-2 cells, RSV MOI 0.5, 3 days, CellTiter-Glo luminescence
Experimental: Cytopathic Effect (CPE) Assay Experimental Procedure:
• RSV titer: 6.9×10^6 pfu/ml • MOI=pfu used for infection/cell number • 1) HEp-2 cells were seeded in 384-well plates at 5000 cells per well in 25 μl assay medium and incubated for 24 h at 37° C. in 5% CO2. Cells were seeded in each well expect for the top row, which contains medium only (low control). • 2) Compounds were dispensed using the Echo550 Liquid Handler. All compounds were used at 10 mM stock concentration. The positive control Ribavirin was included as control compound in all assays. • 3) Cells were expected to double once over 24 h. • 4) The cells were infected the next day at RSV MOI 0.5, adding 5 μl virus diluted in assay medium. • 5) Non-infected cells were treated with 5 μl assay medium (high control) • 6) Plates were centrifuged at 400 rpm, 10 sec to allow the virus to sink onto the cells. • 7) Cells were incubated at 37° C. in 5% CO2 for 3 days. • 8) 10 μl CellTiter-Glo® (Promega) was added to all wells. • 9) The plate was incubated at RT for 30 min. • 10) Luminescence was measured on the Envision plate reader.

[2] = test system: recombinant HRSV expressing the firefly luciferase; assay: In vivo anti-hRSV activity in a mouse model of infection (recombinant HRSV expressing firefly luciferase, bioluminescence); conditions: BALB/C mice, 1 mpk intranasally, 5 days post infection, versus mock-treated, p<0.05
Experimental: FIG. 24: In vivo evaluation of compound #21 anti-hRSV activity in a mouse model of infection. FIG. 24A: Bioluminescence was measured by intranasal injection of 50 μl of D-luciferin (200 mM) and capture of photon emission from the chest at 5 days post infection using the IVIS system. Dorsal and ventral views of mice representative of the results are shown. FIG. 24B: Comparative bioluminescence between compound #21 and mock-treated mice 5 days post infection. Each data point represents mean±s.e.m. Brown-Forsythe Test and Welch ANOVA followed by Dunnett's multiple comparison test; * p<0.05
An engineered recombinant HRSV expressing the firefly luciferase was used in a mouse model of infection described in Rameix-Welti et al., Nature Communications, 2014. BALB/C mice were infected with 50×10^4 p.f.u. of virus and treated intranasally by 1 mpk compound #21 or vehicle (10 mice/group). Bioluminescence was measured by intranasal injection of 50 μl of D-luciferin (200 mM) and capture of photon emission from the chest at 5 days post infection using the IVIS system.
Dorsal and ventral views of mice representative of the results are shown at FIG. 24A. Comparative bioluminescence between compound #21 and mock-treated mice 5 days post infection are shown at FIG. 24B. Each data point represents mean±s.e.m. Brown-Forsythe Test and Welch ANOVA followed by Dunnett's multiple comparison test; * p<0.05.

[3] = human respiratory syncytial virus, 72 h, read-out: IC50

SMILES: NC(=O)c1ncn([C@@H]2O[C@H](CO)[C@@H](O)[C@H]2O)n1 [Ribavirin]
- IC50 [1, 3]: 15000 nM

SMILES: CNC(=O)COCCN(Cc1cccc(C(N)=O)c1)Cc1cccc(C(N)=O)c1 [Compound #9]
- IC50 [1, 3]: 2000 nM

SMILES: COc1cc(CN(Cc2cccc(C(N)=O)c2)Cc2cccc(C(N)=O)c2)cc(C(N)=O)c1 [Compound #14]
- IC50 [1, 3]: 70 nM

SMILES: NC(=O)c1cccc(CN(Cc2cccc(C(N)=O)c2)Cc2ccc3[nH]ncc3c2)c1 [Compound #7]
- IC50 [1, 3]: 3900 nM

SMILES: NC(=O)c1cccc(CN(Cc2cccc(C(N)=O)c2)CC2CCCNC2)c1 (stereo not drawn) [Compound #12]
- IC50 [1, 3]: 130 nM

SMILES: COC[C@H](c1cccc(C(=O)O)c1)N(Cc1cccc(C(=O)OC)c1)Cc1cccc(C(=O)OC)c1 [Compound #5]
- IC50 ([1]; read-out: IC50): 2000 nM

SMILES: COC[C@H](c1cccc(Br)c1)N(Cc1cccc(C(=O)OC)c1)Cc1cccc(C(=O)OC)c1 [Compound #4]
- IC50 ([1]; read-out: IC50): 7 nM

SMILES: C[C@@H](c1cccc(C(N)=O)c1)N(Cc1cccc(C(N)=O)c1)Cc1cccc(C(N)=O)c1 [Compound #13]
- IC50 [1, 3]: 4.4 nM

SMILES: COC[C@H](c1cccc(C(N)=O)c1)N(Cc1cccc(C(N)=O)c1)Cc1cccc(C(N)=O)c1 [Compound #21, 3-[[[(1S)-1-(3-carbamoylphenyl)-2-methoxy-ethyl]-[(3-carbamoylphenyl)methyl]amino]methyl]benzamide]
- % viability of cells infected by RSV ([1]; compared with comparative and positive control compounds, FIGS. 1-23A): higher % of viability
- IC50 times lower than IC50 of comparative compounds ([1]; compound #21 versus comparative compounds): ≥ 7 times
- IC50 times lower than IC50 of the closest structural compound #4 ([1]; compound #21 versus compound #4): around 50 times
- IC50 [1, 3]: 0.15 nM
- bioluminescent signal in the lung [2]: significantly reduced

SMILES: COc1ccc(CN(Cc2cccc(C(N)=O)c2)Cc2cccc(C(N)=O)c2)cc1C(N)=O [Compound #10]
- IC50 [1, 3]: 5 nM

SMILES: NC(=O)c1cccc(CN(Cc2cccc(C(N)=O)c2)CC2(F)CCCN(C(N)=O)C2)c1 (stereo not drawn) [Compound #20]
- IC50 [1, 3]: 130 nM

SMILES: CC(c1cccc(C(N)=O)c1)N(Cc1cccc(C(N)=O)c1)Cc1cccc(C(N)=O)c1 (stereo not drawn) [Compound #15]
- IC50 [1, 3]: 1.5 nM

SMILES: COC(=O)c1cccc(CN(Cc2cccc(C(=O)OC)c2)[C@H](CO)c2cccc(Br)c2)c1 [Compound #3]
- IC50 ([1]; read-out: IC50): 3400 nM

SMILES: NC(=O)c1cccc(CN(Cc2cccc(C(N)=O)c2)C[C@H]2CCCN(C(N)=O)C2)c1 [Compound #11]
- IC50 [1, 3]: 4.5 nM

SMILES: NC(=O)COCCN(Cc1cccc(C(N)=O)c1)Cc1cccc(C(N)=O)c1 [Compound #16]
- IC50 [1, 3]: 350 nM

SMILES: NC(=O)c1cccc(CN(Cc2cccc(C(N)=O)c2)CC2CCN(C(N)=O)C2)c1 (stereo not drawn) [Compound #17]
- IC50 [1]: Not calculable

SMILES: NC(=O)c1cccc(CN(Cc2cccc(C(N)=O)c2)CC2CCCN(C(N)=O)C2)c1 (stereo not drawn) [Compound #18]
- IC50 [1, 3]: 8 nM

SMILES: COC[C@H](c1cccc(C(=O)O)c1)N(Cc1cccc(C(=O)O)c1)Cc1cccc(C(=O)O)c1 [Compound #6]
- IC50 ([1]; read-out: IC50): 200 nM

SMILES: NC(=O)c1cccc(CN(Cc2cccc(C(N)=O)c2)C[C@@H]2CCCN(C(N)=O)C2)c1 [Compound #8]
- IC50 [1, 3]: 100 nM

SMILES: Cc1cn2nc([C@@H]3CCCCN3C(=O)c3cc(Cl)ccc3NS(C)(=O)=O)cc2nc1N1CC[C@H](N)C1 [Presatovir]
- IC50 [1, 3]: 1.1 nM
